We go through 8 molecules from US6992193B2, “Sulfonylamino phenylacetamide derivatives and methods of their use” (Adolor Corporation, priority 2003, dated 2006).

Data set [1] addresses CYP3A4 (Homo sapiens, UniProt P08684). The experiment in a line: Inhibition of CYP3A4 conversion of dibenzylfluorescein to fluorescein. The format is in vitro ADME. Conditions: DBF to fluorescein conversion; read-out: IC50(CYP3A4). The method, then:
(§1) Inhibition of CYP2C9 and CYP3A4
(§2) These assays were carried out as described using CYP2C9 and CYP3A4 conversion of dibenzylfluorescein (DBF) to fluorescein (F).

In data set [2] the target is T1, CYP2D6 (Homo sapiens, UniProt P10635).
T1 construct: purchased BD Biosciences
T1 sequence (P10635 whole entry): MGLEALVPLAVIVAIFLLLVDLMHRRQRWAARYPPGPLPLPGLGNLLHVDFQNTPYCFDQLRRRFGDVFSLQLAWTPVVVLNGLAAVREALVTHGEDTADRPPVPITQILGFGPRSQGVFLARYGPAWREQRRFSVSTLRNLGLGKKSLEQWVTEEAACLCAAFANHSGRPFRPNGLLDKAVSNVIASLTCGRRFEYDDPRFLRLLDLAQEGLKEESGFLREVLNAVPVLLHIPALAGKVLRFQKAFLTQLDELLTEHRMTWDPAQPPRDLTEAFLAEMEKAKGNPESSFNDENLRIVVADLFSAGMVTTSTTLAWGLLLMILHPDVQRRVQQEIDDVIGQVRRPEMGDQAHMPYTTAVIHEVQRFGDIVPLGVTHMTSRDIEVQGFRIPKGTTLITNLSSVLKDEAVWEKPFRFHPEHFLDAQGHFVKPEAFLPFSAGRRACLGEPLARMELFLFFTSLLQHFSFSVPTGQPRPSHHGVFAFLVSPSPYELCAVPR
The experiment in a line: Inhibition of CYP2D6 catalyzed conversion of MAMC to HAMC. Conditions: MAMC to HAMC conversion; for IC50: read-out: IC50(CYP2D6). The format is in vitro ADME. The method, then:
Inhibition of CYP2D6 Catalyzed Conversion of MAMC to HAMC
Microsomes containing baculovirus expressed human recombinant CYP2D6 and MAMC were purchased from BD Biosciences. The method is a modification of the method provided by BD Biosciences.
• Assay Buffer=50 mM KPO4, 15 μg/mL NADP^+, 0.30 mg/mL glucose-6-phosphate, 0.20 mg/mL MgCl2, 0.96 U/mL glucose-6-phosphate dehydrogenase, 2.5 μM MAMC, pH 7.4. • Dilution Buffer=50 mM KPO4, pH 7.4 • Enzyme Buffer=150 mM KPO4, pH 7.4 • Stop Solution=80% acetonitrile, 20% 0.5 M Tris Base Procedure:
The assays were done in black 96 well plates (VWR Cat# 22221-572) and contained: 40 μL assay buffer, 10 μL test compound in dilution buffer and 50 μL of 10-15 pmol/mL CYP2D6 in enzyme buffer. Final concentrations: (100 mM KPO4, pH 7.4, 7.9 μM NADP^+, 0.36 mM glucose-6-phosphate, 0.4 mM MgCl2, 0.38 U/mL glucose-6-phosphate dehydrogenase, 1 μM MAMC (BD Biosciences), 0.5 pmol CYP2D6 (BD Biosciences))
For large experiments, assay buffer and test compound were added using the MiniTrak IV (Packard Biosciences), otherwise they were added using 25-250 μL and 5-100 μL 8 channel electronic pipettors (BioHit). CYP2D6 was added using 25-250 μL 8 channel electronic pipettor.
Titrations are done in either 96 well deep-well plates (Beckman) or 96 well microtiter plates (Costar), an initial dilution in dilution buffer is prepared from stock solutions in DMSO to start either 8 (1:6) or 12 (1:3.15) serial dilutions. For 1:6 dilutions, 50 μL for each dilution is transferred to 250 μL dilution buffer. For 1:3.15 dilutions, 50 μL for each dilution is transferred to 108 μL dilution buffer. Further details on concentrations will be provided in each experiment. Titrations are done using either 25-250 μL 8 channel electronic pipettor, 30-300 μL 12 channel manual pipettor (Spectrum), or the Multiprobe II. For screening, dilution plates are prepared in dilution buffer in 96 well microtiter plates from masterplates in 100% DMSO using the Multiprobe II or MiniTrak IV. After assay buffer and test compound has been added, the plates and the enzyme buffer are prewarmed at 37° C. for 15 minutes. After prewarming, CYP2D6 is added to then enzyme buffer and then added to the assay plate using 25-250 μL 8 channel electronic pipettor and the plates are incubated for 15 minutes at 37° C. After incubation, 50 μL stop solution is added using 25-250 μL 8 channel electronic pipettor. The plates are then counted on the Fusion (Packard Biosciences) for 4 sec/well using and excitation filter of 390 nm and an emission filter of 460 nm, intensity setting of 1, high detector sensitivity.
Non-specific relative fluorescent units (RFU) are determined in the presence of 10 μM quinidine in wells A1, B1, and C1 of each plate and total RFU determined in wells D1, E1, F1 in the absence of test compound. Specific HAMC production is the difference between total and nonspecific. For each compound, a percent inhibition of HAMC production is calculated by: % I=(1−(A/B))*100 • where A=cpm specifically bound for test compound • B=cpm specifically bound in the absence of test compound For experiments where the plates are registered in the biological database, % I is determined automatically by the biological database. Titrations
IC50's are calculated using nonlinear regression to a one-site model using GraphPad Prism or a VB algorithm fitting the data to that equation.

Data set [3] addresses CYP2C9 (Homo sapiens, UniProt P11712). In words: Inhibition of CYP2C9 conversion of dibenzylfluorescein to fluorescein. Conditions: DBF to fluorescein conversion; read-out: IC50(CYP2C9). The format is in vitro ADME. How it is done:
as §1, §2

Data set [4] addresses T2, cloned human δ opioid receptor (Homo sapiens, UniProt P41143).
T2 construct: expressed in transfected cells
In words: [3H]diprenorphine binding to cloned human δ opioid receptor. The method, then: (§3) IC50 values were obtained by nonlinear analysis of the data using GraphPad Prism version 3.00 for Windows (GraphPad Software, San Diego). Ki values were obtained by Cheng-Prusoff corrections of IC50 values.
(§4) After dilution in buffer A and homogenization as before, membrane proteins (10-80 μg) in 250 μL were added to mixtures containing test compound and [^3H]diprenorphine (0.5 to 1.0 nM, 40,000 to 50,000 dpm) in 250 μL of buffer A in 96-well deep-well polystyrene titer plates (Beckman). After incubation at room temperature for one hour, the samples were filtered through GF/B filters that had been presoaked in a solution of 0.5% (w/v) polyethylenimine and 0.1% (w/v) bovine serum albumin in water. The filters were rinsed 4 times with 1 mL of cold 50 mM Tris HCl, pH 7.8 and radioactivity remaining on the filters determined by scintillation spectroscopy. Nonspecific binding was determined by the minimum values of the titration curves and was confirmed by separate assay wells containing 10 μM naloxone.
(§5) To determine the equilibrium dissociation constant for the inhibitors (Ki), radioligand bound (cpm) in the presence of various concentrations of test compounds was measured. […] The nonlinear regression fit was performed using the program Prism® (GraphPad Software, San Diego, Calif.). The Ki values were then determined from the […] values by the following equation, [formula] • where [ligand] is the concentration of radioligand; and • Kd is the equilibrium dissociation constant for the radioligand.

Data set [5] has as its system cytochrome P450 enzymes (CYP2D6, CYP3A4, CYP2C9). In words: Overall evaluation of inhibition of major drug metabolizing hepatic cytochrome P450 enzymes. The data set is classed as in vitro ADME, human.
For data set [6], the target named is T3, cloned human μ opioid receptor (Homo sapiens, UniProt P35372).
T3 construct: expressed in transfected cells
T3 sequence (P35372 whole entry): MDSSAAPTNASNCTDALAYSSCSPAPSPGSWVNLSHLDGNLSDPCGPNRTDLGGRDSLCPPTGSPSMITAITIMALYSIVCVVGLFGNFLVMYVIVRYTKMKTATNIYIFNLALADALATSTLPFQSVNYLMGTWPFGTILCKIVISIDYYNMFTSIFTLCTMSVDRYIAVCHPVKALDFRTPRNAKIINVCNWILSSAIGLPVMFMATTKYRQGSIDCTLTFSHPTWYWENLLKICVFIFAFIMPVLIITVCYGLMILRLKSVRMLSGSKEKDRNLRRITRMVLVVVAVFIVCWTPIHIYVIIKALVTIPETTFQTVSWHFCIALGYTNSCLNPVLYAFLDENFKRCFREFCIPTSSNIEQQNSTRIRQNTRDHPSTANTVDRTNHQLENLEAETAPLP
The experiment in a line: [3H]diprenorphine binding to cloned human μ opioid receptor. How it is done:
as §3, §4, §5

The target of data set [7] is T4, cloned human κ receptors (Homo sapiens, UniProt P41145).
T4 construct: expressed in transfected cells
T4 sequence (P41145 whole entry): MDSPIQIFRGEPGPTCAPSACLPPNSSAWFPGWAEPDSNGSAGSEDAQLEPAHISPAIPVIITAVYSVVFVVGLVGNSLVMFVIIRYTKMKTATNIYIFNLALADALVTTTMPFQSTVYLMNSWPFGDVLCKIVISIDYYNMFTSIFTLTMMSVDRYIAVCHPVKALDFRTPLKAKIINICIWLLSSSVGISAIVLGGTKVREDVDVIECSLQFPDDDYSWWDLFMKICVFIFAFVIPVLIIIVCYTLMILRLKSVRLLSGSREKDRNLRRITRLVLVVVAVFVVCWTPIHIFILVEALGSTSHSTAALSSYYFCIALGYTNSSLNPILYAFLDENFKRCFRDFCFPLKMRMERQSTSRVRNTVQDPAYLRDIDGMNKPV
In words: [35S]GTPγS binding stimulation, membranes containing cloned human κ receptors. The format is biochemical. The conditions noted are these: half-maximal stimulation of [35S]GTPγS binding, cloned human κ receptor. How it is done:
The potencies of the agonists were assessed by their abilities to stimulate [^35S]GTPγS binding to membranes containing the cloned human κ receptors.
To determine the EC50 value, which was the concentration to give half-maximal stimulation of [^35S]GTPγS binding, the amount of [^35S]GTPγS bound in the presence of various concentrations of agonists was measured. The EC50 value was then determined.
In general terms: GTPγS resists hydrolysis and so accumulates on activated G proteins.

The target of data set [8] is T5, cloned human κ opioid receptor (Homo sapiens, UniProt P41145).
T5 construct: expressed in transfected cells
T5 sequence (P41145 whole entry): as above
The experiment in a line: [3H]diprenorphine binding to cloned human κ opioid receptor. The method, then:
as §3, §4
To determine the equilibrium dissociation constant for the inhibitors (Ki), radioligand bound (cpm) in the presence of various concentrations of test compounds was measured. […] The nonlinear regression fit was performed using the program Prism® (GraphPad Software, San Diego, Calif.).

Setting [9] is: inhibition of [3H]diprenorphine binding, cloned human μ receptor, read-out: Ki(μ).

Structures can show the parent of a compound that is named as a salt. Where two headings read alike, the source gives them in different places.

T2 sequence (P41143 whole entry): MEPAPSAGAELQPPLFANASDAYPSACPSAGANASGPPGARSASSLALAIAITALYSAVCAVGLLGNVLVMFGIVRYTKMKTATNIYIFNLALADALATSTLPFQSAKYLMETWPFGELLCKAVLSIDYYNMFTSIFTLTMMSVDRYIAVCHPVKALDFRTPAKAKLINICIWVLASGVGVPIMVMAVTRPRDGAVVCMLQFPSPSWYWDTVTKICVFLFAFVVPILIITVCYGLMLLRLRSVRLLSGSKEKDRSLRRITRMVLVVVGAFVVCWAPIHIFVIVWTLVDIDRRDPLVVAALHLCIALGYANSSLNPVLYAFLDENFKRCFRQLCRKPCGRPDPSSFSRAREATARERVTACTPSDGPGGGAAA
Sequence of CYP2C9 (P11712 whole entry): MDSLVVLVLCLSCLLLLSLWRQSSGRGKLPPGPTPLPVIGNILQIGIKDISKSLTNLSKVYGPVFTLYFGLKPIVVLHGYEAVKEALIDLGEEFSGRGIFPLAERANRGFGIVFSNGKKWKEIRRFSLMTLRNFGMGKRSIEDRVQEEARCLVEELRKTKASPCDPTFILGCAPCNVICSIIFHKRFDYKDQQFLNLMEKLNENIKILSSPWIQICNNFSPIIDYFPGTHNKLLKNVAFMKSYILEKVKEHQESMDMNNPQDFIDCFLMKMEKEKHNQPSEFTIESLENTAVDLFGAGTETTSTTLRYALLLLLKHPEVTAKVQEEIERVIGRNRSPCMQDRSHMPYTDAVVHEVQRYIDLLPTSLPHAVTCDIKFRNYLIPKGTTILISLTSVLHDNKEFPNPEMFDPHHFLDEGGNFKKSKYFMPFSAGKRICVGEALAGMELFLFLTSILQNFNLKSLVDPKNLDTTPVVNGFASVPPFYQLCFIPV
Sequence of CYP3A4 (P08684 whole entry): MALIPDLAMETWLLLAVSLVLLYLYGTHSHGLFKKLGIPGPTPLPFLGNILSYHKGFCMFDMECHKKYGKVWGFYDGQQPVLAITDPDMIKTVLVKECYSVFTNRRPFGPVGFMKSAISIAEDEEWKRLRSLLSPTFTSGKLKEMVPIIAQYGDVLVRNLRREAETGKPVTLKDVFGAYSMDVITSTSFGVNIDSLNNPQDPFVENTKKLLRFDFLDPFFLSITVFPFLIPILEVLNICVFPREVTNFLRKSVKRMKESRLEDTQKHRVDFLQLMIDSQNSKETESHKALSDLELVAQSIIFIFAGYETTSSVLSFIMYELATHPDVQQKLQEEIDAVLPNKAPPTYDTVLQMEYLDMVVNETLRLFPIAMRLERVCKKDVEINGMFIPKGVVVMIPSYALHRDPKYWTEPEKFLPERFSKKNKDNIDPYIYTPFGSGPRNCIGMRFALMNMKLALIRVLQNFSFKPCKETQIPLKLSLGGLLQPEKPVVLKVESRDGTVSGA

With `CCCS(=O)(=O)NCc1ccc(CC(=O)N(C)[C@H](CN2CC[C@H](O)C2)c2ccccc2)cc1.Cl` [Example 16, N-{2-[3-(S)-hydroxy-pyrrolidin-1-yl]-1-(S)-phenyl-ethyl}-N-methyl-2-{4-[(propane-1-sulfonylamino)-methyl]-phenyl}-acetamide hydrochloride], the IC50 in data set [1], in data set [2] and in data set [3] was above 10000 nM each time. Further, the Ki (in general, a dissociation constant, usually derived from enzyme kinetics or from competition with a known ligand) in data set [4] was found to be 100 nM; in data set [6], 730 nM. For the same molecule, the “activity toward the cytochrome P450 (summary in words)” value (“activity toward the cytochrome P450” for short) in data set [5] is “metabolically stable in regard to their activity toward the cytochrome P450”.
For the molecule `CN(C(=O)Cc1ccc(CNS(=O)(=O)c2cccs2)cc1)[C@H](CN1CC[C@H](O)C1)c1ccccc1` [Example 22, N-{2-[3-(S)-hydroxy-pyrrolidin-1-yl]-1-(S)-Phenyl-ethyl}-N-methyl-2-{4-[(thiophene-2-sulfonylamino)-methyl]-phenyl}-acetamide hydrochloride], the IC50 (in general, the concentration needed to halve the response being measured) is 4400 nM in data set [1], 5800 nM in data set [2] and above 10000 nM in data set [3]. For the same molecule, in data set [7], the EC50 (as a rule, the concentration that produces a half-maximal response) was found to be 4.9 nM. Moreover, the inhibition constant (Ki) in data set [4] is 56 nM; in data set [8], 2.9 nM; in data set [6], 1100 nM.
As for `Cc1noc(C)c1S(=O)(=O)NCc1ccc(CC(=O)N(C)[C@H](CN2CC[C@H](O)C2)c2ccccc2)cc1` [Example 23, 2-{4-[(3,5-dimethyl-isoxazole-4-sulfonylamino)-methyl]-phenyl}-N-{2-[3-(S)-hydroxy-pyrrolidin-1-yl]-1-(S)-phenyl-ethyl}-N-methyl-acetamide hydrochloride], the figures for the IC50 in data set [1], in data set [2] and in data set [3] were 4300 nM, 11000 nM and above 10000 nM, respectively. This molecule also had an EC50 in data set [7] of 52 nM. Moreover, the Ki was 320 nM in data set [4], 25 nM in data set [8] and 1400 nM in data set [6].
As for `CN(C(=O)Cc1ccc(CN(C)S(C)(=O)=O)cc1)[C@H](CN1CC[C@H](O)C1)c1ccccc1.Cl` [Example 24, N-{2-[3-(S)-hydroxy-pyrrolidin-1-yl]-1-(S)-phenyl-ethyl}-2-{4-[(methanesulfonyl-methyl-amino)-methyl]-phenyl}-N-methyl-acetamide hydrochloride], the IC50 in data set [1], in data set [2] and in data set [3] was above 10000 nM in each case. The molecule further registered an EC50 in data set [7] of 55 nM. For the same molecule, the results for the Ki in data set [4], in data set [8] and in data set [6] were 540 nM, 14 nM and 200 nM, respectively. In addition, the “activity toward the cytochrome P450” value in data set [5] is on record as “metabolically stable in regard to their activity toward the cytochrome P450”.
For `CN(C(=O)Cc1ccc(CCNS(C)(=O)=O)cc1)[C@H](CN1CC[C@H](O)C1)c1ccccc1.Cl` [Example 26, N-{2-[3-(S)-hydroxy-pyrrolidin-1-yl]-1-(S)-phenyl-ethyl}-2-[4-(2-methanesulfonylamino-ethyl)-phenyl]-N-methyl-acetamide hydrochloride], the IC50 in data set [1] and in data set [3] was above 10000 nM in each case. The same molecule yielded an IC50 at 15 min in data set [2] (human, pH 7.4, probe MAMC (1 µM)) of 10000 nM. Also, the Ki in data set [4] worked out at 110 nM; in data set [6] (setting [9]), 790 nM. For the same molecule, the “activity toward the cytochrome P450” value in data set [5] is listed as “metabolically stable in regard to their activity toward the cytochrome P450”.
Consider `CN(C(=O)Cc1ccc(CCCNS(C)(=O)=O)cc1)[C@H](CN1CC[C@H](O)C1)c1ccccc1.Cl` [Example 27, N-{2-[3-(S)-hydroxy-pyrrolidin-1-yl]-1-(S)-phenyl-ethyl}-2-[4-(3-methanesulfonylamino-propyl)-phenyl]-N-methyl-acetamide hydrochloride], for which the IC50 in data set [1], in data set [2] and in data set [3] was above 10000 nM throughout. Moreover, the Ki in data set [4] (inhibition of [3H]diprenorphine binding, cloned human δ receptor, read-out: Ki(δ)) was 240 nM; in data set [6] (setting [9]) it was 320 nM. For the same molecule, in data set [5], the “activity toward the cytochrome P450” value is listed as “metabolically stable in regard to their activity toward the cytochrome P450”.
With `CC(C)[C@@H](CN1CC[C@H](O)C1)N(C)C(=O)Cc1ccc(CNS(C)(=O)=O)cc1.O=C(O)C(F)(F)F` [Example 28, N-{1-[3-(S)-hydroxy-pyrrolidin-1-ylmethyl]-2-methyl-(S)-propyl}-2-[4-(methanesulfonylamino-methyl)-phenyl]-N-methyl-acetamide trifluoroacetate], the IC50 in data set [1], in data set [2] and in data set [3] was above 10000 nM each time. The same molecule had an EC50 in data set [7] of 79 nM. The results for the Ki in data set [4], in data set [8] and in data set [6] were above 3000 nM, 6.2 nM and above 3000 nM, respectively. Besides, in data set [5], the “activity toward the cytochrome P450” value is listed as “metabolically stable in regard to their activity toward the cytochrome P450”.
As to `CS(=O)(=O)NCc1ccc(CC(=O)N2CCCC[C@H]2CN2CC[C@H](O)C2)cc1.O=C(O)C(F)(F)F` [Example 29, N-[4-(2-{2-[3-(S)-hydroxy-pyrrolidin-1-ylmethyl]-(S)-piperidin-1-yl}-2-oxo-ethyl)-benzyl]-methanesulfonamide trifluoroacetate], the concentration for half-maximal inhibition (IC50) in data set [1], in data set [2] and in data set [3] was above 10000 nM in each case. This molecule came in with an EC50 in data set [7] of 27 nM. Further, the Ki in data set [4] was above 3000 nM; in data set [8] it was 2.1 nM; in data set [6], above 3000 nM. The “activity toward the cytochrome P450” value in data set [5] is reported as “metabolically stable in regard to their activity toward the cytochrome P450”.
